These are literature values, as cited in PubChem BioAssay AID1259409 (Chemical Carcinogenesis Research Information System (CCRIS), 2018).

The test system of this data set is rodent chemically induced tumor inhibition, incidence and multiplicity. Put plainly: CCRIS tumor inhibitor studies.

Structures are written as SMILES.

As for `CC(=O)OC/C=C(C)/C=C/C=C(C)/C=C/C1=C(C)CCCC1(C)C`, the “tumour outcome (control, treated, inhibition, significance)” value (Carcinogen: 1,2-DIMETHYLHYDRAZINE, 540-73-8, Dose [Inhibitor]: 0.8 MMOL/KG DIET DAILY STARTING 12 D AFTER CARCINOGEN TREATMENT THROUGH ABOUT 8 MO AFTER CARCINOGEN DOSE (STUDY DURATION, Route [Inhibitor]: ORAL, Species: RAT, Strain/Sex: F344/MALE, Target Tissue: Type of Lesion: COLON: ADENOCARCINOMA, Dose [Carcinogen]: 150 MG/KG BW ONCE, Promoter: NONE USED) is 10/39 (26%), 7/30 (23%), 12%, not significant; the “tumour outcome (control, treated, inhibition, significance)” value (Carcinogen: 1,2-DIMETHYLHYDRAZINE, 540-73-8, Dose [Inhibitor]: 0.8 MMOL/KG DIET DAILY STARTING 12 D AFTER CARCINOGEN TREATMENT THROUGH ABOUT 8 MO AFTER CARCINOGEN DOSE (STUDY DURATION, Route [Inhibitor]: ORAL, Species: RAT, Strain/Sex: F344/MALE, Target Tissue: Type of Lesion: COLON: ADENOMA, Dose [Carcinogen]: 150 MG/KG BW ONCE, Promoter: NONE USED) was 23/39 (59%), 9/30 (30%), 49%, p<0.05; the “tumour outcome (control, treated, inhibition, significance)” value (Carcinogen: 7,12-DIMETHYLBENZ[A]ANTHRACENE, 57-97-6, Dose [Inhibitor]: 0, 328 MG/KG OF DIET FROM DAY 34 TO 54 OF AGE (STUDY DURATION: 200 D), Route [Inhibitor]: ORAL, Species: RAT, Strain/Sex: SPRAGUE-DAWLEY/FEMALE, Target Tissue: Type of Lesion: MAMMARY GLAND: ADENOCARCINOMA, Dose [Carcinogen]: 15 MG/RAT ONCE AT 55 D OF AGE, Promoter: NONE USED) is given as 93%, 97%, -4%, not calculated; the “tumour outcome (control, treated, inhibition, significance)” value (Carcinogen: 7,12-DIMETHYLBENZ[A]ANTHRACENE, 57-97-6, Dose [Inhibitor]: 0, 328 MG/KG OF DIET FROM DAY 34 TO 54 OF AGE (STUDY DURATION: 200 D), Route [Inhibitor]: ORAL, Species: RAT, Strain/Sex: SPRAGUE-DAWLEY/FEMALE, Target Tissue: Type of Lesion: MAMMARY GLAND: BENIGN TUMORS, Dose [Carcinogen]: 15 MG/RAT ONCE AT 55 D OF AGE, Promoter: NONE USED) is recorded as 28%, 40%, -43%, not calculated; the “tumour outcome (control, treated, inhibition, significance)” value (Carcinogen: 7,12-DIMETHYLBENZ[A]ANTHRACENE, 57-97-6, Dose [Inhibitor]: 0, 350 MG/KG 1/WK FROM 40-90 D OF AGE THEN 0, 250 MG/KG 1/WK FROM 90-180 D OF AGE AND 0, 200 MG/KG 1/WK FROM 180-240 D O, Dose [Inhibitor]: 0, 350 MG/KG 1/WK FROM 40-90 D OF AGE THEN 0, 250 MG/KG 1/WK FROM 90-180 D OF AGE AND 0, 200 MG/KG 1/WK FROM 180-240 D O, Route [Inhibitor]: INTRAPERITONEAL, Species: RAT, Strain/Sex: SPRAGUE DAWLEY/FEMALE, Target Tissue: Type of Lesion: MAMMARY GLAND: ADENOCARCINOMA, FIBROADENOMA, Dose [Carcinogen]: 5 MG IN 0.2 ML SESAME OIL 1/2 D FOR 12 D BEGINNING AT 50 D OF AGE, Promoter: NONE USED) was 100%, 48%, 52%, p<0.001; the “tumour outcome (control, treated, inhibition, significance)” value (Carcinogen: 7,12-DIMETHYLBENZ[A]ANTHRACENE, 57-97-6, Dose [Inhibitor]: 0.2 MILLIMOLAR IN DIET DAILY FOR 27 WK STARTING 3 D AFTER LAST CARCINOGEN DOSE AND CONTINUING THE END OF THE STUDY (STUD, Route [Inhibitor]: ORAL, Species: MOUSE, Strain/Sex: BDF/FEMALE, Target Tissue: Type of Lesion: MAMMARY GLAND: ADENOCARCINOMA, Dose [Carcinogen]: 1 MG/WK FOR 6 WK, Promoter: NONE USED) is 22/75 (29%), 31/75 (41%), -41%, not significant. The “tumour outcome (control, treated, inhibition, significance)” value is 20/75 (27%), 19/75 (25%), 7%, not significant (Carcinogen: 7,12-DIMETHYLBENZ[A]ANTHRACENE, 57-97-6, Dose [Inhibitor]: 0.2 MILLIMOLAR IN DIET DAILY FOR 27 WK STARTING 3 D AFTER LAST CARCINOGEN DOSE AND CONTINUING THROUGH THE END OF THE STU, Route [Inhibitor]: ORAL, Species: MOUSE, Strain/Sex: BDF/FEMALE, Target Tissue: Type of Lesion: MAMMARY GLAND: ADENOCANTHOMA, Dose [Carcinogen]: 1 MG/WK FOR 6 WK, Promoter: NONE USED); 100%, 92%, 8%, not significant (Carcinogen: 7,12-DIMETHYLBENZ[A]ANTHRACENE, 57-97-6, Dose [Inhibitor]: 68 MG/KG DIET DAILY FOR 11 WK STARTING 3 D AFTER CARCINOGEN TREATMENT (STUDY DURATION: 11 WK), Route [Inhibitor]: ORAL, Species: RAT, Strain/Sex: SPRAGUE-DAWLEY/FEMALE, Target Tissue: Type of Lesion: MAMMARY GLAND: CARCINOMA, Dose [Carcinogen]: 20 MG/ML SESAME OIL ONCE AT 53 D OF AGE, Promoter: NONE USED); 90%, 74%, 18%, not significant (Carcinogen: 7,12-DIMETHYLBENZ[A]ANTHRACENE, 57-97-6, Dose [Inhibitor]: 204 MG/KG DIET DAILY FOR 12 WK STARTING 3 D AFTER CARCINOGEN TREATMENT (STUDY DURATION: 12 WK), Route [Inhibitor]: ORAL, Species: RAT, Strain/Sex: SPRAGUE-DAWLEY/FEMALE, Target Tissue: Type of Lesion: MAMMARY GLAND: CARCINOMA, Dose [Carcinogen]: 10 MG/ML SESAME OIL ONCE AT 53 D OF AGE, Promoter: NONE USED); 90%, 47%, 48%, p<0.001 (Carcinogen: 7,12-DIMETHYLBENZ[A]ANTHRACENE, 57-97-6, Dose [Inhibitor]: 250 MG/KG DIET DAILY FOR 28 WK STARTING 2 WK BEFORE START OF CARCINOGEN TREATMENT AND CONTINUING FOR DURATION OF STUDY (, Route [Inhibitor]: ORAL, Species: RAT, Strain/Sex: SPRAGUE-DAWLEY/FEMALE, Target Tissue: Type of Lesion: MAMMARY GLAND: TUMOR, Dose [Carcinogen]: 5 MG IN CORN OIL 1/WK FOR 3 WK, Promoter: NONE USED); 85%, 60%, 29%, not significant (Carcinogen: 7,12-DIMETHYLBENZ[A]ANTHRACENE, 57-97-6, Dose [Inhibitor]: 328 MG/KG DIET DAILY FOR 20 WK STARTING 3 D AFTER CARCINOGEN TREATMENT (STUDY DURATION: 26 WK), Route [Inhibitor]: ORAL, Species: RAT, Strain/Sex: SPRAGUE-DAWLEY/FEMALE, Target Tissue: Type of Lesion: MAMMARY GLAND: CARCINOMA, Dose [Carcinogen]: 5 MG/ML SESAME OIL ONCE AT 53 D OF AGE, Promoter: NONE USED); 63%, 57%, 10%, not calculated (Carcinogen: DIMETHYLBENZ[A]ANTHRACENE, 57-97-6, Dose [Inhibitor]: 0, 328 MG/KG DIET IN VEHICLE 2 MO PRIOR TO CARCINOGEN DOSE AND CONTINUED UNTIL CARCINOGEN ADMINISTRATION (STUDY DURATION, Route [Inhibitor]: ORAL, Species: RAT, Strain/Sex: CD-1/FEMALE, Target Tissue: Type of Lesion: MAMMARY GLAND: ADENOCARCINOMA, Dose [Carcinogen]: 20 MG IN 1 ML SESAME OIL ONCE, Promoter: NONE USED). In addition, the “tumour outcome (control, treated, inhibition, significance)” value (Carcinogen: DIMETHYLBENZ[A]ANTHRACENE, 57-97-6, Dose [Inhibitor]: 0, 328 MG/KG DIET IN VEHICLE 2 MO PRIOR TO CARCINOGEN DOSE AND CONTINUED UNTIL CARCINOGEN ADMINISTRATION (STUDY DURATION, Route [Inhibitor]: ORAL, Species: RAT, Strain/Sex: CD-1/FEMALE, Target Tissue: Type of Lesion: MAMMARY GLAND: BENIGN TUMOR, Dose [Carcinogen]: 20 MG IN 1 ML SESAME OIL ONCE, Promoter: NONE USED) is given as 17%, 50%, -194%, p<0.05; the “tumour outcome (control, treated, inhibition, significance)” value (Carcinogen: ETHYLNITROSOUREA, 759-73-9, Dose [Inhibitor]: 0, 300000 IU KG IN 1:20 (VOLUME: VOLUME) SUNFLOWER OIL IN DIET 5 D/WK FOR LIFE (STUDY DURATION: 319 D), Route [Inhibitor]: ORAL, Species: RAT, Strain/Sex: ALBINO/MALE,FEMALE, Target Tissue: Type of Lesion: NERVOUS SYSTEM: SCHWANNOMA, Dose [Carcinogen]: 75 MG/KG IN SALINE BY INTRAVENOUS INJECTION ONCE 21 D AFTER CONCEPTION) is reported as 37/89 (42%), 14/50 (28%), 33%, not calculated; the “tumour outcome (control, treated, inhibition, significance)” value (Carcinogen: ETHYLNITROSOUREA, 759-73-9, Dose [Inhibitor]: 0, 300000 IU/KG IN 1:20 (VOLUME: VOLUME) SUNFLOWER OIL IN DIET 5 D/WK FOR LIFE (STUDY DURATION: 319 D), Route [Inhibitor]: ORAL, Species: RAT, Strain/Sex: ALBINO/MALE,FEMALE, Target Tissue: Type of Lesion: BRAIN: GLIOMA OR ASTROCYTOMA, Dose [Carcinogen]: 75 MG/KG IN SALINE BY INTRAVENOUS INJECTION ONCE 21 D AFTER CONCEPTION) is 54/89 (61%), 38/50 (76%), -25%, not calculated; the “tumour outcome (control, treated, inhibition, significance)” value (Carcinogen: ETHYLNITROSOUREA, 759-73-9, Dose [Inhibitor]: 0, 300000 IU/KG IN 1:20 (VOLUME: VOLUME) SUNFLOWER OIL IN DIET 5 D/WK FOR LIFE (STUDY DURATION: 319 D), Route [Inhibitor]: ORAL, Species: RAT, Strain/Sex: ALBINO/MALE,FEMALE, Target Tissue: Type of Lesion: KIDNEY: MESENCHYMAL TUMOR OR ADENOCARCINOMA, Dose [Carcinogen]: 75 MG/KG IN SALINE BY INTRAVENOUS INJECTION ONCE 21 D AFTER CONCEPTION) is 33/89 (37%), 14/50 (28%), 24%, not calculated; the “tumour outcome (control, treated, inhibition, significance)” value (Carcinogen: ETHYLNITROSOUREA, 759-73-9, Dose [Inhibitor]: 0, 300000 IU/KG IN 1:20 (VOLUME: VOLUME) SUNFLOWER OIL IN DIET 5 D/WK FOR LIFE (STUDY DURATION: 319 D), Route [Inhibitor]: ORAL, Species: RAT, Strain/Sex: ALBINO/MALE,FEMALE, Target Tissue: Type of Lesion: SPINAL CORD: TUMOR, Dose [Carcinogen]: 75 MG/KG IN SALINE BY INTRAVENOUS INJECTION ONCE 21 D AFTER CONCEPTION) was 55/89 (62%), 26/50 (52%), 16%, not calculated; the “tumour outcome (control, treated, inhibition, significance)” value (Carcinogen: METHYLNITROSOUREA, 684-93-5, Dose [Inhibitor]: 0, 328 MG/KG DIET IN VEHICLE 2 MO PRIOR TO CARCINOGEN DOSE AND CONTINUED UNTIL CARCINOGEN ADMINISTRATION (STUDY DURATION, Route [Inhibitor]: ORAL, Species: RAT, Strain/Sex: CD-1/FEMALE, Target Tissue: Type of Lesion: MAMMARY GLAND: ADENOCARCINOMA, Dose [Carcinogen]: 50 MG/KG BW ONCE, Promoter: NONE USED) is 57%, 72%), -26%, not calculated. In addition, the “tumour outcome (control, treated, inhibition, significance)” value (Carcinogen: METHYLNITROSOUREA, 684-93-5, Dose [Inhibitor]: 0, 328 MG/KG DIET IN VEHICLE 2 MO PRIOR TO CARCINOGEN DOSE AND CONTINUED UNTIL CARCINOGEN ADMINISTRATION (STUDY DURATION, Route [Inhibitor]: ORAL, Species: RAT, Strain/Sex: CD-1/FEMALE, Target Tissue: Type of Lesion: MAMMARY GLAND: BENIGN TUMOR, Dose [Carcinogen]: 50 MG/KG BW ONCE, Promoter: NONE USED) is given as 10%, 21%, -110%, not calculated.
